# From ChEMBL document CHEMBL4359842 (J Med Chem, 2019)
# The source made the active and inactive calls. No cut-off for these calls is given here.
# How the values were obtained:
# [1] = Cmax in APPswe/PS1dE9 double mutant-transgenic mouse at 3 mg/kg, iv administered as single dose by LC-MS/MS analysis; assay type: ADME, organism-based; design: dose 3 mg/kg, route intravenous; settings: in vivo
# SH-SY5Y = assay: Neuroprotective activity against amyloid beta (25 to 35 residues)-induced cell death in human SH-SY5Y cells assessed as increase in cell viability at 1 to 10 uM preincubated for 1 hr followed by amyloid beta (25 to 35 residues) addition and measured after 72 hrs by MTT assay; assay type: functional, cell-based
# Mus musculus [2] = assay: In vivo inhibition of […] phosphorylation in hippocampus of APPswe/PS1dE9 double mutant-transgenic mouse model at 30 mg/kg, ip administered once daily for 12 weeks measured post-last dose by Western blot analysis; assay type: functional, organism-based
# [3] = AUC in APPswe/PS1dE9 double mutant-transgenic mouse at 3 mg/kg, iv administered as single dose by LC-MS/MS analysis; assay type: ADME, organism-based; settings: in vivo
# Mus musculus [4] = organism: Mus musculus; settings: 15 to 30 mg/kg
# Description: In vivo inhibition of JNK in APPswe/PS1dE9 double mutant-transgenic mouse model assessed as increase in transformation of sAPPbeta to sAPPalpha by measuring reduction in sAPPbeta level at 15 to 30 mg/kg, ip administered once daily for 12 weeks measured post-last dose by Western blot analysis
# Mus musculus [5] = assay: Improvement in spatial memory impairment in APPswe/PS1dE9 double mutant-transgenic mouse model assessed as increase in duration of time spent in target quadrant at 15 to 30 mg/kg, ip administered once daily for 12 weeks measured 24 hrs after training trial by morris water maze test; assay type: functional, organism-based
# [6] = AUC in APPswe/PS1dE9 double mutant-transgenic mouse at 30 mg/kg, ip administered as single dose by LC-MS/MS analysis; assay type: ADME, organism-based; settings: in vivo
# [7] = Drug level in APPswe/PS1dE9 double mutant-transgenic mouse brain at 30 mg/kg, ip administered as single dose measured after 0.5 hrs by LC-MS/MS analysis; assay type: ADME, organism-based; settings: read-out: Drug uptake
# [8] = Bioavailability in APPswe/PS1dE9 double mutant-transgenic mouse at 30 mg/kg, ip administered as single dose by LC-MS/MS analysis; assay type: ADME, organism-based; settings: in vivo
# Mus musculus [9] = assay: In vivo inhibition of JNK in APPswe/PS1dE9 double mutant-transgenic mouse model assessed as reduction in APP phosphorylation at Thr668 residue in cortex at 30 mg/kg, ip administered once daily for 12 weeks measured post-last dose by Western blot analysis; assay type: functional, organism-based
# Mus musculus [10] = assay: (§1) Improvement in spatial memory impairment in ip dosed APPswe/PS1dE9 double mutant-transgenic mouse model assessed as decrease in area occupied by diffused plaque in cortex administered once daily for 12 weeks measured post-last dose by thioflavin S staining-based fluorescence microscopic analysis; assay type: functional, organism-based
# Mus musculus [11] = assay: as §1, with “fibrillar” for “diffused”, “hippocampus” for “cortex”; assay type: functional, organism-based
# [12] = target: T1, Mitogen-activated protein kinase 10 (Homo sapiens, UniProt P53779); assay: Inhibition of recombinant human full-length JNK3 at 10 uM using ATF2 as substrate measured after 40 mins in presence of [gamma33P]ATP by scintillation counting analysis relative to control
# T1 sequence (P53779 whole entry): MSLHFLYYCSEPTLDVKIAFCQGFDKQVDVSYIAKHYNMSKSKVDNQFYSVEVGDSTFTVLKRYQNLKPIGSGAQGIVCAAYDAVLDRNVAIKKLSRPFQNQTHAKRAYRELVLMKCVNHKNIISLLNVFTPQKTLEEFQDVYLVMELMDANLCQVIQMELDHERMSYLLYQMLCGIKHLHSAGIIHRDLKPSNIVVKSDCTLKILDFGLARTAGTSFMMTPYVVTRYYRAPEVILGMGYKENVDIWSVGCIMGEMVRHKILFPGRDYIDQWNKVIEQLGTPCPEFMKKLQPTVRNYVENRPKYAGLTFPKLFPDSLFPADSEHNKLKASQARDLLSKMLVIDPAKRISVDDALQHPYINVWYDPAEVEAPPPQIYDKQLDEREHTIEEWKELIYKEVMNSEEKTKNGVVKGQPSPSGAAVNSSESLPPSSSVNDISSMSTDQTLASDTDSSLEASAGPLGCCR
# Mus musculus [13] = assay: Improvement in spatial memory impairment in ip dosed APPswe/PS1dE9 double mutant-transgenic mouse model assessed as decrease in number of fibrillar plaque in hippocampus administered once daily for 12 weeks measured post-last dose by thioflavin S staining-based fluorescence microscopic analysis; assay type: functional, organism-based
# [14] = Plasma concentration in APPswe/PS1dE9 double mutant-transgenic mouse at 30 mg/kg, ip administered as single dose measured after 2 hrs by LC-MS/MS analysis; assay type: ADME, organism-based
# Mus musculus [15] = assay: Improvement in spatial memory impairment in APPswe/PS1dE9 double mutant-transgenic mouse model assessed as increase in retention latency time at 15 to 30 mg/kg, ip administered once daily for 12 weeks measured post-last dose by step-through passive avoidance test; assay type: functional, organism-based
# [16] = Plasma concentration in APPswe/PS1dE9 double mutant-transgenic mouse at 30 mg/kg, ip administered as single dose measured after 24 hrs by LC-MS/MS analysis; assay type: ADME, organism-based
# Mus musculus [17] = assay: Improvement in spatial memory impairment in ip dosed APPswe/PS1dE9 double mutant-transgenic mouse model assessed as decrease in number of fibrillar plaque in cortex administered once daily for 12 weeks measured post-last dose by thioflavin S staining-based fluorescence microscopic analysis; assay type: functional, organism-based
# [18] = Tmax in APPswe/PS1dE9 double mutant-transgenic mouse at 30 mg/kg, ip administered as single dose by LC-MS/MS analysis; assay type: ADME, organism-based; settings: in vivo
# [19] = Terminal half life in APPswe/PS1dE9 double mutant-transgenic mouse at 30 mg/kg, ip administered as single dose by LC-MS/MS analysis; assay type: ADME, organism-based; settings: in vivo, read-out: beta t1/2 (converted)
# [20] = Primary phase half life in APPswe/PS1dE9 double mutant-transgenic mouse at 3 mg/kg, iv administered as single dose by LC-MS/MS analysis; assay type: ADME, organism-based; settings: in vivo, read-out: alphat1/2 (converted)
# [21] = target: T1, Mitogen-activated protein kinase 10; assay: Inhibition of recombinant human full-length JNK3 using ATF2 as substrate measured after 40 mins in presence of [gamma33P]ATP by scintillation counting analysis
# [22] = target: Mitogen-activated protein kinase 8 (Homo sapiens, UniProt P45983); assay: Inhibition of human JNK1alpha1 using ATF2 as substrate measured after 40 mins in presence of [gamma33P]ATP by scintillation counting analysis
# Mitogen-activated protein kinase 8, sequence (P45983 whole entry): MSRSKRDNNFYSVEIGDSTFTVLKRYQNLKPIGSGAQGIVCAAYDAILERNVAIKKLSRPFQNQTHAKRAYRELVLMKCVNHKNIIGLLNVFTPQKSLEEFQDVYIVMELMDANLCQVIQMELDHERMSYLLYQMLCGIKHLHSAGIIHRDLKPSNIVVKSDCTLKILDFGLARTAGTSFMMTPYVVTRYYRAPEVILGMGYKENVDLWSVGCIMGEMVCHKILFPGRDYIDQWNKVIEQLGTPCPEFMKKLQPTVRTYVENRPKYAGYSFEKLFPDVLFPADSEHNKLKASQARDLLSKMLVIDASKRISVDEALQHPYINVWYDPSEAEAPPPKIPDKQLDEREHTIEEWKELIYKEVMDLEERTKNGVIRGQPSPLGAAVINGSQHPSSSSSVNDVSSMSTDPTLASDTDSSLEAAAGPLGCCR
# [23] = Plasma concentration in APPswe/PS1dE9 double mutant-transgenic mouse at 30 mg/kg, ip administered as single dose measured after 8 hrs by LC-MS/MS analysis; assay type: ADME, organism-based
smiles,measurement,setting,value
O=C1N/C(=N/c2ccccc2Cl)S/C1=C1\C(=O)Nc2ccc(F)cc21,Cmax,[1],4550 ng/mL
same,Activity,SH-SY5Y,Active
same,inhibition,Mus musculus [2],Active
same,AUC,[3],2120 ng·h/mL
same,inhibition,Mus musculus [4],Active
same,Activity,Mus musculus [5],Active
same,AUC,[6],19200 ng·h/mL
same,concentration at 0.5 h,[7],51.4 ng/g
same,bioavailability,[8],90.5%
same,inhibition,Mus musculus [9],Active
same,Activity,Mus musculus [10],Dose-dependent effect
same,Activity,Mus musculus [11],Dose-dependent effect
same,inhibition,[12],99%
same,Activity,Mus musculus [13],Dose-dependent effect
same,concentration at 2 h,[14],1200 ng/mL
same,Activity,Mus musculus [15],Active
same,concentration at 24 h,[16],41 ng/mL
same,Activity,Mus musculus [17],Dose-dependent effect
same,Tmax,[18],24 min
same,half-life,[19],967 min
same,half-life,[20],21 min
same,IC50,[21],40 nM
same,IC50,[22],> 100 µM
same,concentration at 8 h,[23],78.1 ng/mL
